Reference: patent US10022420B2, “Methods of synthesizing γ-AApeptides, γ-AApeptide building blocks, γ-AApeptide libraries, and γ-AApeptide inhibitors of Aβ40 aggregates” (UNIVERSITY OF SOUTH FLORIDA, priority 2013, dated 2018)

Key:
Aβ40 [1] = biological target: T1, Aβ40 (Homo sapiens, UniProt P05067); test: Thioflavin T (ThT) assay of Aβ40 aggregation; format: biochemical
T1 construct: mouse 6e10 primary antibody which recognizes the first 16 amino acids of Aβ1-40
Procedure: Aggregation control (100%) is set as the change of fluorescence of 2.5 μM Aβ40 in Tris (pH 7.5) buffer. The concentration of ThT is 5 μM. Excitation: 440 nm; emission: 482 nm. These two sequences were investigated for their capability to inhibit the aggregation of Aβ40 by ThT assay. […] Compounds in different concentrations in Tris buffer Saline (TBS, pH 7.5) containing 10 μM ThT were added into a black 96 well plate corning@3721. Aβ40 monomer was freshly thawed and used to make a stock solution in TBS with a concentration of 5 μM. Equal volume of Aβ solution was added into the 96 well palate (final Aβ concentration was 2.5 μM). Time-dependent fluorescence change was monitored by a Synergy 2 plate reader at an excitation wavelength of 440 nm and emission at 482 nm. After 24 h, the fluorescence change was recorded. 100% aggregation is the fluorescence change of 2.5 μM Aβ40 in TBS buffer containing 5 μM ThT.

Aβ40 [2] = biological target: T1, Aβ40; test: Transmission electron microscopy (TEM) of Aβ40 fibrils; format: biochemical; conditions: HW-155-1 5 μM, 24 h
Procedure: FIGS. 15A-15D are TEM images illustrating monomeric Aβ40 in the absence (FIG. 15A) and presence (FIG. 15B) of HW-155-1 after 24 h and pre-aggregated Aβ40 in the absence (FIG. 15C) and presence (FIG. 15D) of HW-155-1 after 24 h. Bar=[…]; Aβ40 is 2.5 μM; and HW-155-1 is 5 μM. The ability of HW-155-1 to prevent Aβ aggregation was further confirmed by TEM (FIGS. 15A and 15B). In fact, HW-155-1 can even disassemble pre-formed Aβ fibrils (FIGS. 15C and 15D). In these experiments, the Aβ fibrils were not seen for 24 h after incubating HW-155-1 with Aβ40 monomers (prevention of aggregation) and pre-formed Aβ40 aggregates (disassembling aggregation). Aβ40 preparations were adsorbed onto 200-mesh copper grids for 1 hour (until it is dry), and then stained with 1% uranyl acetate for 20 sec. The excess fluid was removed and the grids were analyzed with FEI Morgagni 268D TEM operated at 60 kV.

N2a neuroblastoma cells = test: MTT toxicity assay: Aβ42 aggregates on N2a cells; format: cell-based; conditions: final Aβ 1 μM, 24 h
Procedure: FIG. 16 is a bar graph illustrating detoxification of Aβ42 aggregates by HW-155-1. N2a cells were cultured with 1 μM of pre-aggregated Aβ42 in the absence/presence of HW-155-1 for 24 h.
The effect of HW-155-1 on the toxicity of Aβ aggregates towards N2a neuroblastoma cells was then examined. […] In contrast, pre-incubation of 0.5 equiv. of HW-155-1 with Aβ42 reduces the death of N2a cells to 25%, while the presence of 1 equiv.
In siliconized tubes, Aβ42 peptide of 10 μM (in F-12 medium) were pre-incubated with 0, 0.5 and 1 equiv. HW-155-1 AApeptide, respectively. These solutions were incubated on rotating shaker (Barnstead 400100) at 8 rpm in 37° C. for 24 h. Meanwhile, N2a cells were plated in 96-well plates (10000 cells/well) with triple replications for 24 h. Then pre-aggregated mixtures were added into each well to make the final Aβ concentration at 1 μM. The plate was incubated for another 24 h. Next, 10 μL MTT reagent was added to the cells. The plate was incubated for 4 h at 37° C. After the addition of 100 μL solubilization solution and incubation overnight, OD values were read at 575 nm. The final cell viability was calculated as: Cell viability %=(OD575−OD blank)/(ODctrl−OD blank)×100%.

Aβ40 peptide = biological target: T2, Aβ40 peptide (Homo sapiens, UniProt P05067); test: On-bead screening of OBOC γ-AApeptide library against Aβ40 peptide; format: binding; conditions: Aβ40 20 ug/mL, 6e10 antibody, anti-mouse IgG-dylight 549
T2 construct: mouse 6e10 primary antibody which recognizes the first 16 amino acids of Aβ1-40
Procedure: The γ-AApeptide library was screened to identify ligands that can bind to Aβ. The anti-aggregation efficiency of identified ligands was determined by functional assay afterwards. Thus, beads were incubated with the Aβ40 peptide, followed by the treatment of anti-Aβ antibody 6E10 (FIG. 10). Then, anti-mouse IgG-dylight 549 conjugate was added. Dylight 549 produces strong orange fluorescence, a region in which TentaGel beads have low background fluorescence (see Aquino, C. supra, 4, which is incorporated by reference herein regarding properties of TentaGel beads). The dye is also much less expensive than quantum dots. […]
In order to avoid any possible nonspecific binding, both the Aβ and antibodies solution were made in 1% BSA/TBST blocking buffer. […] The beads were washed with PBST completely and transferred into a 6-well plate to be observed under Zeiss inverted fluorescence microscope 10×43HE filter, and the orange bright beads were picked up for they had suspicious nonspecific binding.
The rest of the beads were pulled together, washed with PBST, and then treated with 1% SDS at 90° C. for ten minutes to remove any bound proteins. […] After washing and equilibrating in TBST overnight, the beads were ready for actual Aβ screening. […]
The beads were collected and washed with 1×PBST three times. […] Washed with water, DMSO, and acetonitrile, beads were then cleaved and analyzed using previous procedure. […]

T1 sequence (P05067 672-711 limits assumed): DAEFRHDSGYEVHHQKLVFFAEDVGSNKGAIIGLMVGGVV
T2 sequence (P05067 672-711 limits assumed): as above

inhibition at 1 µM (Aβ40 [1]; 1 μM compound, 2.5 μM Aβ40, first 2 h of incubation (FIG. 14B), read-out: inhibition of Aβ aggregation): ~50% | potency relative to KLVFF (Aβ40 [1]; ThT assay, Aβ40): at least 100 fold | Aβ fibrils by TEM, prevention of aggregation (Aβ40 [2]; Aβ40 monomers 2.5 μM): not seen | Aβ fibrils by TEM, disassembling aggregation (Aβ40 [2]; pre-formed Aβ40 aggregates 2.5 μM): not seen | on-bead binding to Aβ40 (screening outcome) (Aβ40 peptide): hit
SMILES: C=CCOC(=O)N(CC(=O)N[C@@H](Cc1ccccc1)CN(CC(=O)N[C@@H](CCCCN)CN(CC(=O)N[C@@H](CC(C)C)CN(CC(N)=O)C(=O)CC(C)C)C(=O)CC(C)C)C(=O)CCc1ccccc1)C[C@@H](N)CCCCN [HW-155-1]
death of N2a cells (N2a neuroblastoma cells; 0.5 equiv. compound pre-incubated with Aβ42, Aβ42 alone kills 30%): 25% | toxicity of Aβ42 / death of N2a cells (N2a neuroblastoma cells; 1 equiv. compound pre-incubated with Aβ42): almost completely removes the toxicity
